Reference: patent US20250302904A1, “EXTRACTS IN EUTECTIC SOLVENT OF OLIVE OIL POLYPHENOLS, COMPOSITIONS, USES AND METHODS OF PREPARATION THEREOF” (ACTIVE-ITALIA S.R.L., priority 2022, published 2025)

What was measured:
[1] = Stability test of oleocanthal and oleacein in NaDES or water, 30 days; type: physicochemical; conditions: after 30 days, 10 mM
Protocol: Oleocanthal and oleacein were dissolved at a final concentration equal to 10 mM in water or in NaDES (Betaine/Propylene glycol, Bet/Prop) and subjected to stability test.

[2] = Additional stability tests of oleocanthal and oleacein in water or formulated product (NaDES), 6 months; type: physicochemical; conditions: for degradation with respect to control at time zero: formulated product (NaDES betaine/propylene glycol 1:3.3); for degradation: in water
Protocol: FIG. 4. Stability over time (6 months) of oleacein and oleocanthal at 25° C. and 40° C. in water and in the formulated product (serum NaDES diluted in almond oil). The values represent standard averages and deviations (N=3). The significance tests were performed with one-way ANOVA (p<=0.05).
Additional stability tests of oleocanthal and oleacein in water or in NaDES (that is in NaDES mixture comprising betaine/propylene glycol 1:3.3) were performed for 6 months, at different temperatures. The results obtained from the stability tests over time (6 months) of oleacein and oleocanthal, at two different temperatures (25° C. and 40° C. (accelerated stability)), in water and in the formulated product, are shown in FIG. 4. […] In particular, in water, after six months at 25° C., there is a degradation of oleacein and oleocanthal by about 70% and l′80%, respectively. At 40° C. the degradation results to be still more evident: about 90% for oleacein and 80% for oleocanthal. On the contrary, in the product formulated according to the present invention (NaDES betaine/propylene glycol 1:3.3), the degradation of the active principles, with respect to control at time zero, results to be modest at 25° C. and by about 50% and 30% for oleacein and oleocanthal respectively at 40° C.

[3] = NaDES betaine/propylene glycol (1:3.3), 25° C.
[4] = NaDES betaine/propylene glycol (1:3.3), 40° C.

| SMILES | % loss ([1]; H2O, 25° C.) | % loss ([1]; H2O, 40° C.) | % loss [1, 3] | % loss [1, 4] | degradation with respect to control at time zero ([2]; six months at 25° C.) | degradation with respect to control at time zero ([2]; six months at 40° C.) | degradation ([2]; after six months at 25° C.) | degradation ([2]; six months at 40° C.) |
| --- | --- | --- | --- | --- | --- | --- | --- | --- |
| CC=C(C=O)C(CC=O)CC(=O)OCCc1ccc(O)c(O)c1 (stereo in doubt) [Oleacein] | 8.1% | 38.1% | ~0% | 4.5% | modest | about 50% | about 70% | about 90% |
| C/C=C(/C=O)[C@@H](CC=O)CC(=O)OCCc1ccc(O)cc1 [Oleocanthal] | 7.5% | 32.6% | ~0% | 1.4% | modest | ~30% | ~80% | ~80% |
